Active and inactive are the calls of the source.
Columns and labels:
[1] = tested on: Mus musculus; experiment: Anticonvulsant activity in CD-1 mouse assessed as protection against maximal electroshock-induced tonic extension of hind limbs at 100 mg/kg, po after 2 hrs; type: functional, organism-based; set-up: dose 100 mg/kg; conditions: Hindlimb
[2] = tested on: Mus musculus; experiment: Anticonvulsant activity in CD-1 mouse assessed as protection against maximal electroshock-induced tonic extension of hind limbs at 300 mg/kg, po after 0.5 hrs; type: functional, organism-based; set-up: dose 300 mg/kg; conditions: Hindlimb
[3] = species: Mus musculus
Description: (§1) Anticonvulsant activity in po dosed CF-1 mouse assessed as protection against maximal electroshock-induced tonic extension of hind limbs measured at 1 hr

[4] = tested on: Rattus norvegicus; experiment: Anticonvulsant activity in ip dosed Sprague-Dawley rat hippocampal kindling model assessed as suppression of seizure activity treated 15 for mins post suprathreshold-stimulation; type: functional, organism-based; conditions: Hippocampus
[5] = tested on: Rattus norvegicus; experiment: Anticonvulsant activity in Sprague-Dawley rat hippocampal kindling model assessed as reduction in global seizures at >26 mg/kg, ip treated 15 for mins post suprathreshold-stimulation; type: functional, organism-based; conditions: Hippocampus
[6] = tested on: Mus musculus; experiment: Anticonvulsant activity in CD-1 mouse assessed as protection against maximal electroshock-induced tonic extension of hind limbs at 300 mg/kg, po after 2 hrs; type: functional, organism-based; set-up: dose 300 mg/kg; conditions: Hindlimb
[7] = tested on: Mus musculus; experiment: Anticonvulsant activity in CD-1 mouse assessed as protection against maximal electroshock-induced tonic extension of hind limbs at 100 mg/kg, po after 0.5 hrs; type: functional, organism-based; set-up: dose 100 mg/kg; conditions: Hindlimb
[8] = molecular target: Carbonic anhydrase 2 (Homo sapiens, UniProt P00918)
Description: Inhibition of human carbonic anhydrase 2 by CO2 hydration assay

[9] = tested on: Rattus norvegicus; experiment: Anticonvulsant activity in Sprague-Dawley rat hippocampal kindling model assessed as complete absence of seizure activity at >300 mg/kg, ip treated 15 for mins post suprathreshold-stimulation; type: functional, organism-based; conditions: Hippocampus
[10] = molecular target: Sodium channel protein type 2 subunit alpha (Rattus norvegicus) (UniProt P04775); type: cell-based; conditions: CHL1610
Sodium channel protein type 2 subunit alpha (Rattus norvegicus), sequence (P04775 whole entry, looked up): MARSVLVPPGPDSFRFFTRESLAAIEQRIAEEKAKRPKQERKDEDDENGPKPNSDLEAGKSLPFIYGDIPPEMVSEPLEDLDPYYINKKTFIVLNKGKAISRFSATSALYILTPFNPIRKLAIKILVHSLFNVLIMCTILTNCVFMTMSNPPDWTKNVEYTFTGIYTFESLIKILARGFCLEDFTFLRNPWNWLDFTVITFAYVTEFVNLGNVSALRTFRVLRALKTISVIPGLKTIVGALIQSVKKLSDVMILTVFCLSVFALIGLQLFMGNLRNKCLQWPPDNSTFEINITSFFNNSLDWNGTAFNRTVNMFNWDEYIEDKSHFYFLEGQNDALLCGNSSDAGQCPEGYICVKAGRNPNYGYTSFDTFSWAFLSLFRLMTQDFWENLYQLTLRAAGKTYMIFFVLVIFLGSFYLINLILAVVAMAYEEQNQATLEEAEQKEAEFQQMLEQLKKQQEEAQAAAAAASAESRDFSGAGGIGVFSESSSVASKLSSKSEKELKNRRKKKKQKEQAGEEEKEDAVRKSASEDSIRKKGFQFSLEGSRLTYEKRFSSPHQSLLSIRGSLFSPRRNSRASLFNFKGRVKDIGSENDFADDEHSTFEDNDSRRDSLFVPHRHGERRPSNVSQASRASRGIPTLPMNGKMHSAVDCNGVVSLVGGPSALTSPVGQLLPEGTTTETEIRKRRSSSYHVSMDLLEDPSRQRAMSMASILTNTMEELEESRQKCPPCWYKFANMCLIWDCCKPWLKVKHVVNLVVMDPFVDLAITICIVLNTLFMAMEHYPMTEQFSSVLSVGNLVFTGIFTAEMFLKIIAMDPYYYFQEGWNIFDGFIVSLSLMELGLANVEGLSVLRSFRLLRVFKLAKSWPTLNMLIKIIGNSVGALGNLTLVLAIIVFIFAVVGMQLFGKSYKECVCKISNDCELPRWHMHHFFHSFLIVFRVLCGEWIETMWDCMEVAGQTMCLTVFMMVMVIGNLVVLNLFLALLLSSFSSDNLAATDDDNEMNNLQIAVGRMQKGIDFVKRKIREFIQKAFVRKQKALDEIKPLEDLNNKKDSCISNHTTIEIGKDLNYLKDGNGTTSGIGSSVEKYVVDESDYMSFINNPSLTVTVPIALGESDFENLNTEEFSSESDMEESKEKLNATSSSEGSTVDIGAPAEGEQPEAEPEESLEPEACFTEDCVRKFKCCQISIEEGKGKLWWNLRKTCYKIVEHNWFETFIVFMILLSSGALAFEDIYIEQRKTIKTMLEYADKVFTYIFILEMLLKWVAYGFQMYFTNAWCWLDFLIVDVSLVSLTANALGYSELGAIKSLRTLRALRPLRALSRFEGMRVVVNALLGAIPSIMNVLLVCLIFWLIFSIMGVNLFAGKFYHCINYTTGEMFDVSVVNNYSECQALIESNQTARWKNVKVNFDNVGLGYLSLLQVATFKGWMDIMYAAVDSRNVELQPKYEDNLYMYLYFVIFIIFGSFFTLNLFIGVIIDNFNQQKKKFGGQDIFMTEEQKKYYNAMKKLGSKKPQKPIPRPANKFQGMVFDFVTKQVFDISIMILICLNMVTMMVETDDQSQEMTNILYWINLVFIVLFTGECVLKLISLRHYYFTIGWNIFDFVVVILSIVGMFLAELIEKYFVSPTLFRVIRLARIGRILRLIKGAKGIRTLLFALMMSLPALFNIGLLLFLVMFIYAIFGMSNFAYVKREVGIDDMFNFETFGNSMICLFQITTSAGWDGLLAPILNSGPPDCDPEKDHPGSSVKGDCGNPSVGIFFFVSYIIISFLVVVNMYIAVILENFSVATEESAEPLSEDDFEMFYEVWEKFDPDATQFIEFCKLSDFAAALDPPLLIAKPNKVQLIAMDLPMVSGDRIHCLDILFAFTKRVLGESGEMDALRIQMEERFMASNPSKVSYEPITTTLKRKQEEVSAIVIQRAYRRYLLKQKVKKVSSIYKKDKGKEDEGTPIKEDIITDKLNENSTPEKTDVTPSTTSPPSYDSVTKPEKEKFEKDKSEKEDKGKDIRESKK

[11] = tested on: Mus musculus; experiment: Neurotoxicity in CF-1 mouse at 150 mg/kg, po by rotarod test; type: toxicity, organism-based; set-up: dose 150 mg/kg, route oral; conditions: in vivo
[12] = molecular target: Voltage-dependent N-type calcium channel subunit alpha-1B (Rattus norvegicus) (UniProt Q02294); experiment: Inhibition of rat Cav2.2-mediated calcium flux expressed in HEK cells at 100 uM at 0.07 Hz by whole-cell patch-clamp assay relative to control; type: cell-based; conditions: HEK293
Voltage-dependent N-type calcium channel subunit alpha-1B (Rattus norvegicus), sequence (Q02294 whole entry, looked up): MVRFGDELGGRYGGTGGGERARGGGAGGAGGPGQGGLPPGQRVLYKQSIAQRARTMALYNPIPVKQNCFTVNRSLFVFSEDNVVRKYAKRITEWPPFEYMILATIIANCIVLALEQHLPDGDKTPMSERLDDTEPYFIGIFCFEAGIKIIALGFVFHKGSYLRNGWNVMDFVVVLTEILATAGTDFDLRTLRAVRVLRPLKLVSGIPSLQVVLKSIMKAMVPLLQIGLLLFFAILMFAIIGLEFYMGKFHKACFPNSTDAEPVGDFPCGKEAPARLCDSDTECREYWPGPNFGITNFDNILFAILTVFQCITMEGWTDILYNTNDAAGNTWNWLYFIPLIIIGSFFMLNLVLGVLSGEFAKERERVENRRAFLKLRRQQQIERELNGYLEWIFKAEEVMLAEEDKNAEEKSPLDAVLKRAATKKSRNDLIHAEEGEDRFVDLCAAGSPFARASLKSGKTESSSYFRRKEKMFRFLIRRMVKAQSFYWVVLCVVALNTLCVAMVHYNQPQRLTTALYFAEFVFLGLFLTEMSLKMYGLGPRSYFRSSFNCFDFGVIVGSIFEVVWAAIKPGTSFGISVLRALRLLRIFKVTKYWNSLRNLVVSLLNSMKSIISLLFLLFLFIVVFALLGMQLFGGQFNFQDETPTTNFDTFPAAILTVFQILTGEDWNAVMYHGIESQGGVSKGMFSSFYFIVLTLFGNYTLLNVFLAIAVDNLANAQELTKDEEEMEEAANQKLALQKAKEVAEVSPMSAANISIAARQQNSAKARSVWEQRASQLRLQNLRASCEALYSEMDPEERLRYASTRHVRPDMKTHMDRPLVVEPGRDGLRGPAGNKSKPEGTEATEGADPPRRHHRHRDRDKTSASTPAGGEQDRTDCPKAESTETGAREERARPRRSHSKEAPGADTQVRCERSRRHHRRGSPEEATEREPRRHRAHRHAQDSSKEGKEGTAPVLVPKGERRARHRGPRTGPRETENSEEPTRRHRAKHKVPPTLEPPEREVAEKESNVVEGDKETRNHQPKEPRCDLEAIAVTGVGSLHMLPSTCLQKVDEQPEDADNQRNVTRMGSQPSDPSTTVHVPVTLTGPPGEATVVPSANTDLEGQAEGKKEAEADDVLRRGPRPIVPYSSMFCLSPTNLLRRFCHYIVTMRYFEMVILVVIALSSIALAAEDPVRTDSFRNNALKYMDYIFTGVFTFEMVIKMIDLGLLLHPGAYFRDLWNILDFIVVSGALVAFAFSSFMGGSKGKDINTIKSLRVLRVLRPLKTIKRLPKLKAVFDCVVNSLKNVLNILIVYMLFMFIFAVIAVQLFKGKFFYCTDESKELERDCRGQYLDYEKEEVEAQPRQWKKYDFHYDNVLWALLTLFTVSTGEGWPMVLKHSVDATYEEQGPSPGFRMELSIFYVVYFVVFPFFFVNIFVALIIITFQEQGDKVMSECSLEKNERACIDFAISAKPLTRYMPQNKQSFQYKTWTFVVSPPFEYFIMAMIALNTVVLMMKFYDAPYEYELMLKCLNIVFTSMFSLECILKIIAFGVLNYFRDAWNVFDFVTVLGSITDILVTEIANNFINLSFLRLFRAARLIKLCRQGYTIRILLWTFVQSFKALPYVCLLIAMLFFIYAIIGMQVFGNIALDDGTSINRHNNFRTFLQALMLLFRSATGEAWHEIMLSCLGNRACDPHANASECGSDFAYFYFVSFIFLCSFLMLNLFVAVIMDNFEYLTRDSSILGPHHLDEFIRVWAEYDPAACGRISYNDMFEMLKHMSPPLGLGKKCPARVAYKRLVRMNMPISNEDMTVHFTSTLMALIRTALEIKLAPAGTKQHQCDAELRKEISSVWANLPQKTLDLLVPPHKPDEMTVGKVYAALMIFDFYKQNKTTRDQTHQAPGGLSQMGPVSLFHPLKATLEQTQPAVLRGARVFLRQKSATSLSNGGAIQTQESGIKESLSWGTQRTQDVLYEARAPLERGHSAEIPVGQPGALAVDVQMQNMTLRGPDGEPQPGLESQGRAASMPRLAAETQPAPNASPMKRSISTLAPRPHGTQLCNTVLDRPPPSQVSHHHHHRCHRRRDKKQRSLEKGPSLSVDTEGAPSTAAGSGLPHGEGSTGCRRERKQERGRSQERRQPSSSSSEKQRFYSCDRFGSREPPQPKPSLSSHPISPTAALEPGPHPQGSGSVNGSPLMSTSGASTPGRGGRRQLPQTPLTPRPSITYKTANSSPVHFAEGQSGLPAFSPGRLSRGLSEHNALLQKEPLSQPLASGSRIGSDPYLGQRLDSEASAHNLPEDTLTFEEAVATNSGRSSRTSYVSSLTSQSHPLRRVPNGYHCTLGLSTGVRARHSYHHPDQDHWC

[13] = molecular target: Sodium channel protein type 2 subunit alpha (Rattus norvegicus, UniProt P04775); experiment: Inhibition of rat Nav1.2 expressed in CHL1610 cells at -67 mV after 2 to 3 mins by whole-cell patch-clamp assay; type: cell-based
[14] = molecular target: T1, Voltage-dependent N-type calcium channel subunit alpha-1B (Rattus norvegicus, UniProt Q02294)
T1 sequence (Q02294 whole entry): as the sequence (Q02294 whole entry, looked up) above
Description: Inhibition of rat Cav2.2-mediated calcium flux expressed in HEK cells at 0.07 Hz by whole-cell patch-clamp assay

[15] = Cmax in rat at 10 mg/kg, po; type: ADME, organism-based; set-up: dose 10 mg/kg, route oral; conditions: in vivo
[16] = molecular target: Sodium channel protein type 2 subunit alpha (Rattus norvegicus) (UniProt P04775); conditions: CHL1610
[17] = Clearance in beagle dog at 2 mg/kg, iv; type: ADME, organism-based, Canis lupus familiaris; set-up: dose 2 mg/kg, route intravenous; conditions: in vivo
[18] = molecular target: Voltage-dependent N-type calcium channel subunit alpha-1B (Rattus norvegicus) (UniProt Q02294); experiment: Inhibition of rat Cav2.2-mediated calcium flux expressed in HEK cells at 100 uM at 5 Hz by whole-cell patch-clamp assay relative to control; type: cell-based; conditions: HEK293
[19] = Half life in beagle dog at 10 mg/kg, po; type: ADME, organism-based, Canis lupus familiaris; set-up: dose 10 mg/kg, route oral; conditions: in vivo
[20] = tested on: Rattus norvegicus; experiment: Anticonvulsant activity in ip dosed Sprague-Dawley rat hippocampal kindling model assessed as effect on after discharge duration treated 15 for mins post suprathreshold-stimulation; type: functional, organism-based; conditions: Hippocampus
[21] = Neurotoxicity in rat by muscle tone test; type: toxicity, organism-based, Muscle tissue; conditions: in vivo
[22] = Cmax in beagle dog at 10 mg/kg, po; type: ADME, organism-based, Canis lupus familiaris; set-up: dose 10 mg/kg, route oral; conditions: in vivo
[23] = species: Homo sapiens; experiment: Binding affinity to central-type benzodiazepine receptor (unknown origin) at 10 uM
[24] = in vivo; conditions: rat, po, 10 mg/kg
[25] = tested on: Rattus norvegicus; experiment: Anticonvulsant activity in ip dosed Sprague-Dawley rat hippocampal kindling model assessed as reduction in global seizures treated 15 for mins post suprathreshold-stimulation; type: functional, organism-based; conditions: Hippocampus
[26] = molecular target: Carbonic anhydrase 1 (Homo sapiens, UniProt P00915); experiment: Inhibition of carbonic anhydrase 1 (unknown origin)
Carbonic anhydrase 1, sequence (P00915 whole entry): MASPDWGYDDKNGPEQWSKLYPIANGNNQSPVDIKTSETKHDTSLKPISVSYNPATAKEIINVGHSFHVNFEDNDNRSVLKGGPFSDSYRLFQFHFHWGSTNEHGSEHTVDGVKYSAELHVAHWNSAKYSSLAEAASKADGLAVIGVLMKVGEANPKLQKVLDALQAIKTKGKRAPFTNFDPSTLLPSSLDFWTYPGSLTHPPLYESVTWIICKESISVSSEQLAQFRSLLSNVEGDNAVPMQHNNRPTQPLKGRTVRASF

[27] = Neurotoxicity in rat by positional sense test; type: toxicity, organism-based; conditions: in vivo
[28] = tested on: Canis familiaris; experiment: Oral bioavailability in beagle dog at 10 mg/kg; type: ADME, organism-based, Canis lupus familiaris; conditions: in vivo
[29] = molecular target: T1, Voltage-dependent N-type calcium channel subunit alpha-1B; remark: listed apart in the source
Description: Inhibition of rat Cav2.2-mediated calcium flux expressed in HEK cells by FDSS assay

[30] = species: Homo sapiens; experiment: Binding affinity to chloride channel (unknown origin) at 10 uM
[31] = AUC in beagle dog at 10 mg/kg, po; type: ADME, organism-based, Canis lupus familiaris; set-up: dose 10 mg/kg, route oral; conditions: plasma
[32] = molecular target: T2, 5-hydroxytryptamine receptor 2C (Homo sapiens) (UniProt P28335); experiment: Binding affinity to 5HT2C receptor (unknown origin)
T2 sequence (whole entry): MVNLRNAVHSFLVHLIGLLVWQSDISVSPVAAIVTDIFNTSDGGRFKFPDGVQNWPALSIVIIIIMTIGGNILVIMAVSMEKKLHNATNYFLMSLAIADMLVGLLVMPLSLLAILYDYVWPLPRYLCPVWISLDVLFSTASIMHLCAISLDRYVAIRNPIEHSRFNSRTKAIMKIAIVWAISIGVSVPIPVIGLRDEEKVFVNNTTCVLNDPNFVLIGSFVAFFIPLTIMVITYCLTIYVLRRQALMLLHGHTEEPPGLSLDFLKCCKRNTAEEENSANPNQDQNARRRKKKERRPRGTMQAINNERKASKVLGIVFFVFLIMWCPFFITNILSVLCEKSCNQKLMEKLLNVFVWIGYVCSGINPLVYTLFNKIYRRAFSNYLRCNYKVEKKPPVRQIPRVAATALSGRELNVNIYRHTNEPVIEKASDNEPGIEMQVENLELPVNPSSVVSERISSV

[33] = tested on: Mus musculus; experiment: Anticonvulsant activity in intravenous PTZ-induced CF-1 mouse assessed as increase in seizure threshold for clonus at […], ip treated for 15 mins prior to PTZ-challenge relative to control; type: functional
[34] = tested on: Mus musculus; experiment: Anticonvulsant activity in intravenous PTZ-induced CF-1 mouse assessed as increase in seizure threshold for twitch at […], ip treated for 15 mins prior to PTZ-challenge relative to control; type: functional
[35] = species: Homo sapiens; experiment: Binding affinity to GABA (unknown origin) at 10 uM
[36] = Volume of distribution at steady state in beagle dog at 2 mg/kg, iv; type: ADME, organism-based, Canis lupus familiaris; set-up: dose 2 mg/kg, route intravenous; conditions: in vivo, read-out: Vdss
[37] = molecular target: Histamine H1 receptor (Homo sapiens) (UniProt P35367); experiment: Inhibition of histamine H1 receptor (unknown origin) at 10 uM relative to control
Histamine H1 receptor (Homo sapiens), sequence (P35367 whole entry): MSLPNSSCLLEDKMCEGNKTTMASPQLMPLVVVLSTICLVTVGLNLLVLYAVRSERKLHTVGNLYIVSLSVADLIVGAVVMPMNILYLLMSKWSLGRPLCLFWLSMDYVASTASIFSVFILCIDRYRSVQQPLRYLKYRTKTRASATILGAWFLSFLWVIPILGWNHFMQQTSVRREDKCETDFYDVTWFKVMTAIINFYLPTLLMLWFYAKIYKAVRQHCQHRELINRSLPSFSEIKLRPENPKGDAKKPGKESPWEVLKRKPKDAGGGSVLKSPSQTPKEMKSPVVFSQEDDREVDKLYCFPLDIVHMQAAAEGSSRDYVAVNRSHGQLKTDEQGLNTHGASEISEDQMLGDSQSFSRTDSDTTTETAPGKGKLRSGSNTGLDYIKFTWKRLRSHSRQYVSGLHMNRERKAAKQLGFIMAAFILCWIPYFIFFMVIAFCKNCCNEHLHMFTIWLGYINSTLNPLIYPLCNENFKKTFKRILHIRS

[38] = molecular target: Sodium-dependent dopamine transporter (Homo sapiens) (UniProt Q01959); experiment: Binding affinity to dopamine transporter (unknown origin)
[39] = molecular target: Sodium channel protein type 2 subunit alpha (Rattus norvegicus) (UniProt P04775); type: cell-based; conditions: CHL1610; remark: listed apart in the source
[40] = Clearance in rat at 2 mg/kg, iv; type: ADME, organism-based; set-up: dose 2 mg/kg, route intravenous; conditions: in vivo
[41] = tested on: Rattus norvegicus; experiment: Oral bioavailability in rat at 10 mg/kg; type: ADME, organism-based; conditions: in vivo
[42] = tested on: Liver microsome; experiment: Drug metabolism in human liver microsomes assessed as hydroxylation metabolite formation by LC-MS/MS analysis; type: ADME
[43] = Volume of distribution at steady state in rat at 2 mg/kg, iv; type: ADME, organism-based; set-up: dose 2 mg/kg, route intravenous; conditions: in vivo, read-out: Vdss
[44] = in vivo; conditions: beagle, dog, po, 10 mg/kg
[45] = Half life in rat at 10 mg/kg, po; type: ADME, organism-based; set-up: dose 10 mg/kg, route oral; conditions: in vivo
[46] = tested on: Mus musculus; experiment: Neurotoxicity in CF-1 mouse at 250 mg/kg, po by rotarod test; type: toxicity, organism-based; set-up: dose 250 mg/kg, route oral; conditions: in vivo
[47] = tested on: Mus musculus; experiment: Anticonvulsant activity in CD-1 mouse assessed as protection against maximal electroshock-induced tonic extension of hind limbs at 300 mg/kg, ip after 0.5 hrs; type: functional, organism-based; set-up: dose 300 mg/kg; conditions: Hindlimb
[48] = Neurotoxicity in po dosed Sprague-Dawley rat by rotarod test; type: toxicity, organism-based; conditions: in vivo
[49] = tested on: Mus musculus; experiment: Anticonvulsant activity in intravenous PTZ-induced CF-1 mouse assessed as increase in seizure threshold for twitch at 182 mg/kg, po treated for 15 mins prior to PTZ-challenge relative to control; type: functional
[50] = tested on: Mus musculus; experiment: Anticonvulsant activity in intravenous PTZ-induced CF-1 mouse assessed as increase in seizure threshold for clonus at 182 mg/kg, po treated for 15 mins prior to PTZ-challenge relative to control; type: functional
[51] = species: Mus musculus; experiment: animal or person; conditions: CF-1, Hindlimb, po, 1 h
Description: as §1

[52] = species: Mus musculus; experiment: animal or person; conditions: CF-1, Hindlimb, po, 2 h
Description: Anticonvulsant activity in po dosed CF-1 mouse assessed as protection against maximal electroshock-induced tonic extension of hind limbs measured at 2 hrs

[53] = species: Rattus norvegicus; experiment: Toxicity in Sprague-Dawley rat assessed as ataxia by Irwin test; type: organism-based; conditions: in vivo

NS(=O)(=O)NCC1CCc2ccccc2O1 (stereo unspecified)
Activity [1]: inactive | Activity [2]: Active

CC1(C)O[C@@H]2[C@@H](CO[C@@]3(COS(N)(=O)=O)OC(C)(C)O[C@@H]23)O1 [TOPIRAMATE]
ED50 [3]: 43.8 mg/kg | Activity [4]: inactive

CN(CC1COc2ccccc2O1)S(N)(=O)=O (racemic)
Activity [2]: Active

NC(=O)N1c2ccccc2C=Cc2ccccc21
Activity [5]: Active | Activity [4]: Active

Cc1ccc2c(c1)O[C@@H](CNS(N)(=O)=O)CO2
Activity [6]: inactive | Activity [2]: inactive

NS(=O)(=O)NC[C@H]1COc2cc(F)ccc2O1
Activity [6]: Active

CCC1(C)CC(=O)NC1=O (stereo unspecified)
Activity [4]: inactive

COc1cccc2c1O[C@@H](CNS(N)(=O)=O)CO2
Activity [7]: inactive | Activity [1]: inactive | IC50 [8]: 300 µM

CCCC(CCC)C(=O)O
Activity [9]: Active | Activity [4]: Active

NCC1(CC(=O)O)CCCCC1
Activity [10]: inactive

NS(=O)(=O)NCCC1COc2ccccc2O1 (stereo unspecified)
Activity [7]: inactive | Activity [1]: inactive | Activity [6]: inactive | Activity [2]: Active

NS(=O)(=O)NC[C@H]1COc2ccc(Cl)cc2O1
Activity [7]: inactive | Activity [11]: Non-toxic

CN(C)S(=O)(=O)NCC1COc2ccccc2O1 (racemic)
Activity [6]: inactive | IC50 [8]: > 1000 µM

NS(=O)(=O)NC[C@H]1COc2cc(Cl)ccc2O1 [JNJ-26489112]
inhibition [12]: 37% | Activity [7]: inactive | IC50 [13]: 36 µM | IC50 [14]: 70 µM | Cmax [15]: 9090 ng/mL | inhibition [16]: Dose-dependent effect | clearance [17]: 0.5 mL/min/kg | inhibition [18]: 53% | half-life [19]: 1200 min | Activity [20]: inactive | NOAEL [21]: 500 mg/kg | Cmax [22]: 11500 ng/mL | inhibition [23]: inactive | Tmax [24]: 53 min | Activity [25]: Active | IC50 [26]: 18 µM | Ki [26]: 2200 nM | Activity [6]: Active | NOAEL [27]: 500 mg/kg | F [28]: 83% | IC50 [29]: 34 µM | inhibition [30]: inactive | AUC [31]: 212 µg·h/mL | INH [32]: 29 µM | Activity [33]: 232% | Activity [34]: 80% | inhibition [35]: inactive | Vd [36]: 0.63 L/kg | inhibition [37]: 23% | INH [38]: 16 µM | inhibition [39]: inactive | clearance [40]: 1.6 mL/min/kg | F [41]: 95% | Drug metabolism [42]: Active | Vd [43]: 0.39 L/kg | Tmax [44]: 55 min | half-life [45]: 492 min

NS(=O)(=O)NC[C@H]1COc2ccccc2O1
Activity [46]: Non-toxic | Activity [47]: Active

NS(=O)(=O)NC[C@H]1COc2c(F)cccc2O1
Activity [1]: inactive | Activity [6]: Active

NS(=O)(=O)NC[C@H]1COc2cc(Br)ccc2O1
Activity [6]: Active | Activity [2]: inactive

NS(=O)(=O)NC[C@H]1COc2cc(Cl)c(Cl)cc2O1
Activity [7]: inactive

NS(=O)(=O)NCC1COc2ccccc2O1 (racemic)
TD50 [48]: 182 mg/kg | Activity [49]: 41% | Activity [50]: 59% | Activity [47]: Active

NS(=O)(=O)NCC1Oc2ccccc2O1
Activity [7]: Active | Activity [1]: inactive | Activity [47]: Active

NS(=O)(=O)NCC1Oc2ccc(Cl)cc2O1 (stereo unspecified)
Activity [7]: inactive | Activity [1]: inactive

NS(=O)(=O)NC[C@H]1COc2c(Cl)cccc2O1
Activity [7]: inactive | ED50 [51]: 124 mg/kg | IC50 [8]: 220 µM

O=C1NC(=O)C(c2ccccc2)(c2ccccc2)N1 [PHENYTOIN]
ED50 [52]: 9 mg/kg | Activity [4]: Active

NS(=O)(=O)NC[C@H]1COc2cccc(Cl)c2O1
Activity [1]: inactive

NS(=O)(=O)NC[C@@H]1COc2ccccc2O1
Activity [53]: Toxic | Activity [47]: Active

From ChEMBL document CHEMBL3091339 (J Med Chem, 2013)
